{"source": "the NIST ThermoML archive (doi:10.1021/acs.jced.9b00535)", "conditions": "Liquid, Ebulliometric method (Recirculating still)", "note": "Numbers after ± are expanded uncertainties."}
{"smiles": "CCCCO", "note": "[butan-1-ol]", "values": [{"measurement": "vapor or sublimation pressure", "setting": "390.75 K", "result": "101.3 ± 3", "unit": "kPa"}]}
{"smiles": "CC(=O)CC(C)C", "note": "[4-methylpentan-2-one]", "values": [{"measurement": "vapor or sublimation pressure", "setting": "389.15 K", "result": "101.3 ± 3", "unit": "kPa"}]}
{"smiles": "CC(=O)N(C)C", "note": "[N,N-dimethylethanamide]", "values": [{"measurement": "vapor or sublimation pressure", "setting": "439.15 K", "result": "101.3 ± 3", "unit": "kPa"}]}
